Source: US20230040402A1, “ANTITUMOR DRUG FOR USE IN COMBINATION WITH IMMUNE CHECKPOINT INHIBITOR” (NIPPON SHINYAKU CO., LTD., priority 2019, published 2023)

Columns and labels:
[1] = system: mouse colorectal cancer cell line CT26; assay: Test Example 3: mPGES-1 inhibitor and anti-mouse PD-1 antibody in combination in allograft model of mouse colorectal cancer cell line CT26; format: in vivo; conditions: female BALB/c mouse, tumor volume on 21st day
Text: (§1) On the day of transplantation, after the culture supernatant was removed, CT26 was washed with HBSS and collected. Collected CT26 was suspended in HBSS and used as cells for transplantation.
Under anesthesia, 3.0x10^5 cells for transplantation were subcutaneously transplanted into the right-hand side abdomen of each female BALB/c mouse.
(§2) The anti-mouse PD-1 antibody was intraperitoneally administered to the mice of the single therapy group of the anti-mouse PD-1 antibody and the combination therapy group, at a dosage of 100 µg/individual, twice a week after transplantation, from the 7th day of transplantation to the 20th day of transplantation.
Regarding the tumor volume (mm^3), the length and width of a tumor were measured by using an electronic caliper, and the tumor volume was calculated by the following formula.

[2] = system: mouse colorectal cancer cell line CT26; assay: Test Example 4: mPGES-1 inhibitor and anti-mouse CTLA-4 antibody in combination in allograft model of mouse colorectal cancer cell line CT26; format: in vivo; conditions: female BALB/c mouse
Text: as §1
Under anesthesia, 3.0×10^5 cells for transplantation were subcutaneously transplanted into the right-hand side abdomen of each female BALB/c mouse.
as §2, with “anti-mouse CTLA-4” for “anti-mouse PD-1”, “group with” for “group of”, “combination” for “combination therapy”, “the 8th” for “the 7th”
Regarding the tumor volume (mm^3), the length and width of a tumor were measured by using an electronic caliper, and the tumor volume was calculated by the following formula

[3] = in combination with anti-mouse PD-1 antibody (100 µg/individual i.p. twice a week), compound 100 mg/kg orally twice a day, 7th to 20th day
[4] = used solely, 100 mg/kg (as free form) orally twice a day, 7th to 20th day of transplantation
[5] = in combination with anti-mouse CTLA-4 antibody (100 µg/individual i.p. twice a week), compound 100 mg/kg orally twice a day, 8th to 20th day
[6] = used solely, 100 mg/kg (as free substance) orally twice a day, 8th to 20th day of transplantation

Row | Compound | tumor growth (tumor volume) [1, 3] | tumor growth (tumor volume) [1, 4] | tumor growth (tumor volume) [2, 5] | tumor growth (tumor volume) [2, 6]
1 | COCc1nc2c(C(=O)Nc3cccc(Cl)c3C)cc(NC(=O)c3ccccc3C(F)(F)F)cc2[nH]1.Cc1ccc(S(=O)(=O)O)cc1 [compound 1, N-(3-chloro-2-methylphenyl)-2-(methoxymethyl)-6-({[2-(trifluoromethyl)phenyl]carbonyl}amino)-1H-benzimidazole-4-carboxamide 4-methylbenzenesulfonate] | tumor growth was suppressed | did not suppress tumor growth | tumor growth was suppressed | did not suppress tumor growth
2 | Cc1c(Cl)cccc1NC(=O)c1cc(NC(=O)c2ccccc2C(F)(F)F)cc2[nH]c(C3(C(F)(F)F)CC3)nc12 [compound 2, N-(3-chloro-2-methylphenyl)-2-[1-(trifluoromethyl)cyclopropyl]-6-({[2-(trifluoromethyl)phenyl]carbonyl}amino)-1H-benzimidazole-4-carboxamide] | tumor growth was suppressed | did not suppress tumor growth | tumor growth was suppressed | did not suppress tumor growth
